A word on the EC50: it is the concentration at which the effect is half-maximal.

The structures appear in SMILES notation.

Results on 36 molecules are retold here after patent EP4650002A1 (Ludwig-Maximilians-Universität, priority 2024, dated 2025).

The assay deals with T1, human TLX (Homo sapiens, UniProt Q9Y466).
T1 construct: expressed in transfected cells; host or cells: HEK293T
The experiment in a line: Gal4 hybrid reporter gene assay (TLX modulation). It counts as cell-based. The following applies: for EC50: Gal4-TLX hybrid reporter in HEK293T cells, 16 h incubation; for relative reporter activity: DMSO control = 1. On the set-up: key to relative reporter activity: fraction of DMSO control (DMSO = 1). The method, then:
In the Tables, the TLX relative reporter activity is expressed as EC50 (in µM) for each listed compound. "EC50" refers to a measure of the concentration of a compound which induces a biological response halfway between the baseline and maximum after a specified exposure time. […] The EC50 is measured via a hybrid reporter gene assay, employing the transfection of a reporter (firefly luciferase with Gal4 response element), a control gene (Renilla luciferase), a transcriptional activator (Gal4-VP16) and a hybrid receptor consisting of the TLX ligand binding domain (LBD) and the Gal4 DNA binding domain (DBD).
Hybrid reporter gene assays. […] After 24 h, medium was changed to Opti-MEM without supplements and cells were transiently transfected using Lipofectamine LTX reagent (Invitrogen, Carlsbad, CA, USA) according to the manufacturer's protocol. Five hours after transfection, cells were incubated with the test compounds in Opti-MEM supplemented with penicillin (100 U/mL), streptomycin (100 µg/mL) and 0.1% DMSO for 16 h before luciferase activity was measured using the Dual-Glo Luciferase Assay System (Promega) according to the manufacturer's protocol on a Tecan Spark luminometer (Tecan Deutschland GmbH, Crailsheim, Germany). Firefly luminescence was divided by Renilla luminescence and multiplied by 1000 resulting in relative light units (RLU) to normalize for transfection efficiency and cell growth. Fold activation was obtained by dividing the mean RLU of test compound by the mean RLU of the untreated control. All samples were tested in at least three biologically independent experiments in duplicates. For dose-response curve fitting and calculation of EC50 values, the equation "[Agonist] vs. response -- Variable slope (four parameters)" was used in GraphPad Prism (version 7.00, GraphPad Software, La Jolla, CA, USA).
A general note: In a reporter assay the amount or activity of a reporter protein is the signal.

[1] abbreviates: minimal remaining or maximum reporter activity after treatment, in brackets below the EC50, <1 agonism, >1 inverse agonism.

T1 sequence (Q9Y466 155-383 limits assumed): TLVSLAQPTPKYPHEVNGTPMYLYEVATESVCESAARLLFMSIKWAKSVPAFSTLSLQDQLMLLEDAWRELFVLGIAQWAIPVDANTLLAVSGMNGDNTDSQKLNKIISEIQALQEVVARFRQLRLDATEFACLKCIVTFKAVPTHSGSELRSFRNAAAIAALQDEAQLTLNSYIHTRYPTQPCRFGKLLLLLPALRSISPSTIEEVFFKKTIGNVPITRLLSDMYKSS

As to `Nc1cc(-c2cnoc2)cc(C(F)(F)F)c1` [compound 40, 3-(isoxazol-4-yl)-5-(trifluoromethyl)aniline], the EC50 came to 3.2 ± 1.2 µM. For the same molecule, the relative reporter activity under setting [1] came out at 0.47±0.06.
The like results for `Cc1cc(-c2cc(N)ccc2OC(F)(F)F)ccn1` [compound 110, 3-(2-methylpyridin-4-yl)-4-(trifluoromethoxy)aniline] were, in that order, 16 ± 10 µM and 0.34±0.09.
Molecule `Cc1cn(-c2cccc(NC(=O)Cc3ccccc3Cl)c2)cn1` [compound 103, 2-(2-chlorophenyl)-N-(3-(4-methyl-1H-imidazol-1-yl)phenyl)acetamide] came in with an EC50 of 1.9 ± 0.5 µM. Moreover, the relative reporter activity under setting [1] turned out to be 0.18±0.10.
In the case of `Cc1cn(-c2cc(NC(=O)c3ccnc(Cl)c3)cc(C(F)(F)F)c2)cn1` [compound 12, 2-chloro-N-(3-(4-methyl-1H-imidazol-1-yl)-5-(trifluoromethyl)phenyl)-isonicotinamide], for the setting “at 10 µM”, the relative reporter activity result is “(0.71±0.05 at 10 µM)”.
Take `Cn1cnc(-c2cc(N)cc(C(F)(F)F)c2)n1` [compound 44, 3-(1-methyl-1H-1,2,4-triazol-3-yl)-5-(trifluoromethyl)aniline]: the relative reporter activity entry (at 100 µM) is “(0.63±0.04 at 100 µM)”.
Molecule `Cc1cc(-c2cc(NC(=O)c3ccnc4ccccc34)cc(C(F)(F)F)c2)ccn1` [compound 75, N-(3-(2-methylpyridin-4-yl)-5-(trifluoromethyl)phenyl)quinoline-4-carboxamide] showed an EC50 of 0.41 ± 0.11 µM. The relative reporter activity under setting [1] stood at 0.26±0.05.
Turning to `Cc1cc(-c2cc(NC(=O)C3CCCNC3)cc(C(F)(F)F)c2)ccn1` (centres unmarked) [compound 85, N-(3-(2-methylpyridin-4-yl)-5-(trifluoromethyl)phenyl)piperidine-3-carboxamide], the relative reporter activity entry (at 20 µM) is listed as “(0.15±0.01 at 20 µM)”.
As to `Cn1ncc2cc(-c3cc(N)cc(C(F)(F)F)c3)ccc21` [compound 97, 3-(1-methyl-1H-indazol-5-yl)-5-(trifluoromethyl)aniline], the concentration for a half-maximal effect (EC50) worked out at 1.6 ± 0.9 µM.
Regarding `Cc1nc(-c2cc(N)cc(C(F)(F)F)c2)cn1C` [compound 50, 3-(1,2-dimethyl-1H-imidazol-4-yl)-5-(trifluoromethyl)aniline], the relative reporter activity result (at 100 µM) is “(0.70±0.06 at 100 µM)”.
Consider `Nc1cc(-c2cn[nH]c2)cc(C(F)(F)F)c1` [compound 39, 3-(1H-Pyrazol-4-yl)-5-(trifluoromethyl)aniline], for which the relative reporter activity result (at 50 µM) is listed as “(0.35±0.06 at 50 µM)”.
With `Cn1ccc2cc(-c3cc(N)cc(C(F)(F)F)c3)cnc21` [compound 98, 3-(1-methyl-1H-pyrrolo[2,3-b]pyridin-5-yl)-5-(trifluoromethyl)aniline], the EC50 turned out to be 0.4 ± 0.07 µM. In addition, under setting [1], the relative reporter activity is recorded as 0.29±0.03.
For the molecule `Cc1noc(C)c1-c1cc(N)cc(C(F)(F)F)c1` [compound 42, 3-(3,5-dimethylisoxazol-4-yl)-5-(trifluoromethyl)aniline], the relative reporter activity result (at 10 µM) is listed as “(0.70±0.07 at 10 µM)”.
In turn, `Nc1cc(-n2cnc3ccccc32)cc(C(F)(F)F)c1` [compound 35, 3-(1H-benzo[d]imidazol-1-yl)-5-(trifluoromethyl)aniline] displayed an EC50 of 2.4 ± 0.9 µM.
Regarding `Cc1cc(C(=O)Nc2cc(N)cc(C(F)(F)F)c2)nn1C` [compound 46, N-(3-amino-5-(trifluoromethyl)phenyl)-1,5-dimethyl-1H-pyrazole-3-carboxamide], the EC50 was 11 ± 5 µM. In addition, the relative reporter activity under setting [1] turned out to be 0.20±0.02.
Molecule `Cc1cc(-c2cc(N)cc(C(F)(F)F)c2)cnc1C` [compound 69, 3-(5,6-dimethylpyridin-3-yl)-5-(trifluoromethyl)aniline] displayed a concentration for a half-maximal effect (EC50) of 6.3 ± 2.1 µM.
In turn, `Cc1cn(-c2cc(NC(=O)c3ccccc3)cc(C(F)(F)F)c2)cn1` [compound 14, N-(3-(4-methyl-1H-imidazol-1-yl)-5-(trifluoromethyl)phenyl)benzamide] yielded an EC50 of 8 ± 1 µM. Under setting [1], this molecule returned a relative reporter activity of 0.38±0.08.
On to `Cc1ccc(C(=O)Nc2cc(-n3cnc(C)c3)cc(C(F)(F)F)c2)cc1` [compound 18, 4-methyl-N-(3-(4-methyl-1H-imidazol-1-yl)-5-(trifluoromethyl)phenyl)benzamide], for which the midpoint of the response, the EC50, lay at 1.4 ± 0.7 µM. This molecule also had a relative reporter activity under setting [1] of 0.59±0.06.
Turning to `CC(=O)c1nc(-c2cc(N)cc(C(F)(F)F)c2)cs1` [compound 65, 1-(4-(3-Amino-5-(trifluoromethyl)phenyl)thiazol-2-yl)ethan-1-one], the relative reporter activity under setting [1] worked out at 0.26±0.05.
Turning to `Nc1cc(-c2ccc3c(c2)CCN3)cc(C(F)(F)F)c1` [compound 96, 3-(indolin-5-yl)-5-(trifluoromethyl)aniline], the midpoint of the response, the EC50, lay at 2.3 ± 0.7 µM.
Regarding `Cc1cnc(-c2cc(N)cc(C(F)(F)F)c2)s1` [compound 54, 3-(5-methylthiazol-2-yl)-5-(trifluoromethyl)aniline], under “at 30 µM”, the relative reporter activity entry was “(0.46±0.21 at 30 µM)”.
`CC(=O)c1cc(-c2cc(N)cc(C(F)(F)F)c2)cs1` [compound 60, 1-(4-(3-amino-5-(trifluoromethyl)phenyl)thiophen-2-yl)ethan-1-one] yielded an EC50 of 0.7 ± 0.3 µM. This molecule also yielded a relative reporter activity under setting [1] of 0.24±0.07.
`Cc1cn(-c2cc(NC(=O)c3ccc(Cl)cc3)cc(C(F)(F)F)c2)cn1` [compound 15, 4-chloro-N-(3-(4-methyl-1H-imidazol-1-yl)-5-(trifluoromethyl)phenyl)benzamide]: the EC50 is 2.3 ± 0.3 µM. This molecule also came in with a relative reporter activity under setting [1] of 0.41±0.05.
For the molecule `Cc1ccc(-c2cc(N)cc(C(F)(F)F)c2)cc1` [compound 67, 4'-methyl-5-(trifluoromethyl)-[1, 1 '-biphenyl]-3-amine], the relative reporter activity entry (at 30 µM) was “inactive at 30 µM”.
In turn, `Cc1cc(-c2cc(N)cc(C(F)(F)F)c2)ccn1` [compound 74, 3-(2-methylpyridin-4-yl)-5-(trifluoromethyl)aniline] had an EC50 of 6.6 ± 2.1 µM.
On to `CC(=O)c1ccc(-c2cc(N)cc(C(F)(F)F)c2)s1` [compound 57, 1-(5-(3-amino-5-(trifluoromethyl)phenyl)thiophen-2-yl)ethan-1-one], for which the EC50 came to 4.4 ± 1.6 µM.
On to `Cc1cc(-c2cc(N)c3cn[nH]c3c2)ccn1` [compound 117], for which the EC50 came to 7.9 ± 1.5 µM. The same molecule registered a relative reporter activity under setting [1] of 0.31±0.03.
Where the note is “at 30 µM”, `Cc1cc(-c2cc(N)cc(C(F)(F)F)c2)cs1` [compound 59, 3-(5-methylthiophen-3-yl)-5-(trifluoromethyl)aniline] showed a relative reporter activity of 2.8±0.5.
Molecule `Cn1cc(-c2cc(N)cc(C(F)(F)F)c2)c2cccnc21` [compound 52, 3-(1-methyl-1H-pyrrolo[2,3-b]pyridin-3-yl)-5-(trifluoromethyl)aniline] showed a half-maximal effective concentration (EC50) of 3.5 ± 0.8 µM.
`Cc1cc(-c2cc(N)cc(Cl)c2)ccn1` [compound 111, 3-chloro-5-(2-methylpyridin-4-yl)aniline] registered an EC50 of 10 ± 7 µM.
Turning to `Cc1cc(N)cc(-c2ccnc(C)c2)c1` [compound 106, 3-methyl-5-(2-methylpyridin-4-yl)aniline], the relative reporter activity result (at 30 µM) was “(0.44±0.09 at 30 µM)”.
For the molecule `Cn1ccc2c(-c3cc(N)cc(C(F)(F)F)c3)cccc21` [compound 100, 3-(1-Methyl-1H-indol-4-yl)-5-(trifluoromethyl)aniline], the midpoint of the response, the EC50, lay at 18 ± 1 µM. The molecule also yielded a relative reporter activity (at 10 µM) of 0.55±0.06.
Regarding `CC(=O)c1cc(-c2cc(NC(=O)Cc3ccccc3Cl)cc(C(F)(F)F)c2)cs1` [compound 62, N-(3-(5-acetylthiophen-3-yl)-5-(trifluoromethyl)phenyl)-2-(2-chlorophenyl)-acetamide], a half-maximal effect (EC50) was put at 0.36 ± 0.09 µM. In addition, under setting [1], the relative reporter activity is 0.27±0.03.
In the case of `Cc1cc(-c2cc(N)c3cc[nH]c3c2)ccn1` [compound 116, 6-(2-methylpyridin-4-yl)-1H-indol-4-amine], the relative reporter activity result (at 50 µM) is “inactive at 50 µM”.
For the molecule `Cn1cc(-c2cc(N)cc(C(F)(F)F)c2)c2ccccc21` [compound 51, 3-(1-Methyl-1H-indol-3-yl)-5-(trifluoromethyl)aniline], the midpoint of the response, the EC50, lay at 9.1 ± 0.7 µM.
On to `CC(=O)c1cc(-c2cc(N)cc(C(F)(F)F)c2)ccn1` [compound 87, 1-(4-(3-amino-5-(trifluoromethyl)phenyl)pyridin-2-yl)ethan-1-one], for which a half-maximal effect (EC50) was put at 4.6 ± 2.1 µM. Under setting [1], this molecule returned a relative reporter activity of 0.30±0.05.
On to `Cc1cn(-c2cc(NC(=O)c3cccc4ccccc34)cc(C(F)(F)F)c2)cn1` [compound 6, N-(3-(4-methyl-1H-imidazol-1-yl)-5-(trifluoromethyl)phenyl)-1-naphthamide], for which, under “at 3 µM”, the relative reporter activity result was “(0.79±0.03 at 3 µM)”.
